{
  "source": "paper PMC4337230",
  "about": "(The journal of physical chemistry. B, 2010)",
  "molecular_target": "T1, Lysine 2,3-aminomutase (LAM) (Clostridium subterminale, UniProt Q9XBQ8)",
  "T1 sequence (Q9XBQ8 1-416)": "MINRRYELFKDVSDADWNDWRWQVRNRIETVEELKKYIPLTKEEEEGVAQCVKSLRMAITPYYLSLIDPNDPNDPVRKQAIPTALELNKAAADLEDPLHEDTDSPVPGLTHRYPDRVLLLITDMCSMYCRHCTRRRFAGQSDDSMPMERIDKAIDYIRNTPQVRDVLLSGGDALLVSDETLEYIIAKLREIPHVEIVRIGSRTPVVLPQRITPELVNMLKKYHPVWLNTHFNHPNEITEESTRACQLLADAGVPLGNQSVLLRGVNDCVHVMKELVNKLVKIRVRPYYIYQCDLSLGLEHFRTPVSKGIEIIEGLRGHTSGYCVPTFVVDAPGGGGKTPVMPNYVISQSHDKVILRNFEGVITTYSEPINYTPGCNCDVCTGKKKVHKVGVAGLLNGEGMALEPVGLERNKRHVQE",
  "experiment": "activation of L-alanine […],3-aminomutation, PITC-HPLC",
  "assay_type": "biochemical",
  "details": "200000 µM; activator; 0.2 M L-alanine, 0.16 mM SAM, pH 8.0, 37 °C, anaerobic",
  "data": [
    {"smiles": "CN", "note": "[methylamine]", "values": [
      {"measurement": "fold acceleration at 0.2 M", "value": 27, "unit": "fold"}
    ]}
  ]
}
